PubChem BioAssay AID1417 (Emory University Molecular Libraries Screening Center, 2008)

target: Induced myeloid leukemia cell differentiation protein Mcl-1 (Homo sapiens) (UniProt Q07820); experiment: Mcl-1/Noxa binding inhibitor potency, dose response, biochemical, TR-FRET (AID 1417); conditions: Mcl-1/Noxa peptide interaction, cell-free TR-FRET (terbium/rhodamine), 2 h; measured here: absolute IC50
Sequence (Q07820 whole entry, looked up): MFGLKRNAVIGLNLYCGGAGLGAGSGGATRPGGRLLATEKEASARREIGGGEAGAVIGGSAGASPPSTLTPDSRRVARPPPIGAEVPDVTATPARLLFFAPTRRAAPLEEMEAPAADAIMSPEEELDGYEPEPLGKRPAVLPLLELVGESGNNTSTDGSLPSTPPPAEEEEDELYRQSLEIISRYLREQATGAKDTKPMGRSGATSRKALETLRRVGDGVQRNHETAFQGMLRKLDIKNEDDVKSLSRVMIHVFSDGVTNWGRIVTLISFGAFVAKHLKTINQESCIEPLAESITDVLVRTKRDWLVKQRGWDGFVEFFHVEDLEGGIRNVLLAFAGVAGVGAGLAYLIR

| SMILES | IC50 [µM] |
| --- | --- |
| O=C(c1ccccc1)c1ccc2nc(-c3ccco3)c(-c3ccco3)nc2c1 | 4.34 |
| O=C(O)c1ccc(-n2cccc2/C=C2/NC(=O)N(c3cccc(Cl)c3)C2=O)cc1 | < 0.4 |
| CNCc1ccccc1OCc1ccccc1F | 5.27 |
| COc1ccc(N2CCN(C(=O)c3ccc(CSc4ccccc4)cc3)CC2)cc1 | > 54 |
| O=C(Nc1nc(-c2ccncc2)cs1)c1ccco1 | 3.61 |
| CCn1c(C)nc2cc(C(=O)N/N=C/c3ccc(O)c(O)c3O)ccc21 | < 0.4 |
| O=C(NC1CCCCC1)c1sc(=S)n2c1[nH]c(=O)c1ccccc12 | 15.9 |
| Cc1sc(NC(=O)c2sc3nc4c(C)cccc4cc3c2N)c(C#N)c1C | < 0.4 |
| CCOC(=O)c1sc2nc3c(SCC(=O)O)cc(C(=O)c4cc(F)ccc4O)cn3c(=O)c2c1C | 2.26 |
| O=C(N/N=C/c1ccc(-c2ccc(S(=O)(=O)Nc3ncccn3)cc2)o1)c1cc2ccccc2cc1O | 1.43 |
| CCCSC1=N/C(=C\c2ccc([N+](=O)[O-])o2)C(=O)S1 | 3.01 |
| COc1cc(/C=N/NC(=O)c2ccc(CN3C(=O)c4cccc5cccc3c45)cc2)cc(OC)c1O | 3.43 |
| CCN(CCO)c1nc(SC)nc2c1sc1nc(-c3ccco3)c3c(c12)CCC3 | < 0.4 |
| O=C(N/N=C/c1ccncc1)c1cc([N+](=O)[O-])cc([N+](=O)[O-])c1O | 2.49 |
| Nc1ncnc2oc(-c3ccco3)c(-c3ccco3)c12 | 3.7 |
| O=C1C=CC(=O)C(C2=C3C(=O)N(CCc4ccccc4)CC(=O)N3CCC2)=C1 | > 54 |
| CC(C)c1ccc(S(=O)(=O)/N=C2/C=CC(=O)c3ccccc32)cc1 | < 0.4 |
| O/N=C1/CCCSc2ccccc21 | > 54 |
| CCCOc1ncnc2c1[nH]c1ccccc12 | > 54 |
| O=C(O)CSc1cc(NS(=O)(=O)c2cccc([N+](=O)[O-])c2)c2ccccc2c1O | < 0.4 |
| CCc1ccc(-n2cccc2/C=C2/C(=N)N3C(=NC2=O)SN=C3S(C)(=O)=O)cc1 | 4.43 |
| CCN(CC)S(=O)(=O)c1cc(NC(=O)Cn2ncc(Cl)c(Cl)c2=O)ccc1C | 3.26 |

| SMILES | IC50 [µM] |
| --- | --- |
| CN(C)c1ccc(NC(=O)/C=C/c2ccccc2Cl)cc1 | < 0.4 |
| O=[N+]([O-])c1ccc(O)c(/C=N/Nc2ccc(Cl)nn2)c1 | 16.7 |
| O=c1c(O)cccc2cc(O)c(O)c(O)c12 | < 0.4 |
| Nc1nc(N)c2cc(Sc3ccc4ccccc4c3)ccc2n1 | 4.06 |
| O=[N+]([O-])c1cc(CN2CCOCC2)c2cccnc2c1O | < 0.4 |
| CCOC(=O)NNc1ccc2nonc2c1[N+](=O)[O-] | < 0.4 |
| CC(/C=C1\SC(=S)N(CCCC(=O)Nc2ccc(C(=O)O)c(O)c2)C1=O)=C\c1ccccc1 | < 0.4 |
| O=c1cc(/N=C/c2coc3c(ccc4ccccc43)c2=O)[nH]c(=S)[nH]1 | 4.08 |
| C=CCc1cccc2cc(C(=O)Nc3ccc(S(=O)(=O)Nc4nnc(CC)s4)cc3)c(=O)oc12 | 1.54 |
| CCOc1ccc(-c2ccc(/C=C3/C(=N)N4C=CSC4=NC3=O)o2)c([N+](=O)[O-])c1 | 1.58 |
| CCC1CSC(Nc2ccc(C(=O)/C=C/c3cccc(C)c3)cc2)=N1 (configuration not stated) | < 0.4 |
| CCNc1nc(NCC)nc(C(=O)NN)n1 | < 0.4 |
| Cc1ccc(-c2cc(C(=O)N3CCN(c4ncccn4)CC3)c3cc(Br)ccc3n2)o1 | 3.78 |
| COc1ccc(C(=O)n2nc(C)c(Br)c2C)cc1 | > 54 |
| C=C(C)C(=O)Nc1cccc(C2=NOC3(C2)C[C@H](C(N)=O)N(C(=O)/C=C/C)C3)c1 (some centres not stated) | 2.94 |
| CC(/C=C/c1ccco1)=N/NC(=O)Cc1cccs1 | 4.32 |
| COC(=O)c1cc(-c2ccc(C)o2)nc2ccccc12 | 14.8 |
| O=S(=O)(Nc1cc(Sc2ncn[nH]2)c(O)c2ccccc12)c1ccccc1 | < 0.4 |
| CCN(CC)c1ccc(NC(=O)CCNC(=O)c2ccco2)cc1 | > 54 |
| Cc1ccc(S(=O)(=O)/N=C2/C=C(Sc3ncn[nH]3)C(=O)c3ccccc32)cc1 | < 0.4 |
| CCOC(=O)c1c(NC(=O)c2cc(-c3ccc(O)cc3)on2)sc(C(C)=O)c1C | 10.9 |
| O=C1/C(=C/C=C/c2ccco2)SC(=S)N1NS(=O)(=O)c1ccccc1 | 1.41 |

| SMILES | IC50 [µM] |
| --- | --- |
| Cc1nc2c(c(=O)n1CCC1=CCCCC1)c1nc3ccccc3nc1n2/N=C/c1ccco1 | 4.44 |
| Cc1c(Cc2ccccc2)c(=O)oc2c(O)c(O)ccc12 | 33.9 |
| O=c1cc2c(=O)oc3cc(O)c(O)oc3c2c(O)c1O | < 0.4 |
| O=C(O)COc1ccccc1C(Nc1ccccn1)c1cc(Cl)c2cccnc2c1O (configuration not stated) | < 0.4 |
| O=C(c1ccc2nc(-c3ccco3)c(-c3ccco3)nc2c1)N1CCN(c2ncccn2)CC1 | 12.6 |
| CN(C)c1ccc(Nc2c3c4c(cccc4n(C)c2=O)C(=O)c2ccccc2-3)cc1 | < 0.4 |
| C/C(=N\Nc1cccc(C(=O)O)c1)c1ccc2c(c1)Nc1ccccc1S2 | < 0.4 |
| Cc1cccc(/N=C/c2sc3ccccc3c2O)n1 | 0.759 |
| COc1ccc(N2C(=O)/C(=C/C=C/c3ccccc3[N+](=O)[O-])C(=O)NC2=S)cc1 | < 0.4 |
| O=C(N/N=C/c1ccc(-c2ccccc2C(=O)O)o1)c1cccs1 | 7.88 |
| O=C(O)c1cccc(Cn2c(Cl)c(/C=N/NC(=O)c3cc4ccccc4cc3O)sc2=O)c1 | 3.35 |
| NS(=O)(=O)c1ccc(-c2ccc(/C=C3\SC(=S)N(C4CCS(=O)(=O)C4)C3=O)o2)cc1 (configuration not stated) | 2.55 |
| O=C1CC(N2CCN(S(=O)(=O)c3ccccc3)CC2)C(=O)N1c1ccccc1 (configuration not stated) | > 54 |
| O=C(Cn1nc(C(=O)O)c2ccccc2c1=O)Nc1ccc2c(c1)C(=O)c1ccccc1C2=O | 4.62 |
| Cc1ccc(C(=O)COC(=O)CNC(=O)c2ccc(N3C(=O)c4ccccc4C3=O)cc2)cc1C | > 54 |
| CCN(c1ccc(NC(=O)COC(=O)CCc2nc3ccccc3n2-c2ccccc2)cc1)C(C)C | < 0.4 |
| Cc1cccc(NC(=O)CSc2nnc(-c3ccco3)c(-c3ccco3)n2)c1C | 6.47 |
| Cc1ccc(-n2cccc2/C=C2/C(=N)N3C(=NC2=O)SN=C3S(C)(=O)=O)cc1 | 5.4 |
| CS(=O)(=O)c1ccc2c(c1)sc1nc(=O)c(/C=C3/C=CC(=O)C(O)=C3)c(N)n12 | < 0.4 |
| CCOC(=O)C1=C(O)/C(=C/c2cc(OC)c(O)c(OC)c2)SC1=Nc1ccc(OC)cc1 | > 54 |
| N=C1/C(=C\c2ccc(-c3ccc(C(=O)O)cc3)o2)C(=O)N=C2SC=C(c3ccccc3)N12 | < 0.4 |
| COc1ccc2[nH]c3c4c(ccc3c2c1)C(=O)C=CC4=O | < 0.4 |

| SMILES | IC50 [µM] |
| --- | --- |
| CN1CCN(c2ccc(Cl)cc2NC(=O)c2ccc(S(=O)(=O)N3CCCCCC3)cc2)CC1 | 3.89 |
| OCCNc1nc(Nc2ccccc2)nc(Nc2ccccc2)n1 | > 54 |
| CC(/C=N\Nc1nnc2c(n1)[nH]c1c(C)cccc12)=C\c1ccco1 | 3.57 |
| N#Cc1c(NC(=O)CSc2ncnc3sccc23)oc(-c2ccco2)c1-c1ccco1 | 3.2 |
| O=C(N/N=C/c1ccc(O)c(O)c1O)/C(=C/c1ccc([N+](=O)[O-])cc1)NC(=O)c1ccccc1 | < 0.4 |
| O=C(O)c1cccc2c1NC(c1cccc([N+](=O)[O-])c1)C1CC(Sc3ccccc3[N+](=O)[O-])C(Cl)C21 (configuration not stated) | 2.25 |
| COc1cc2c(cc1O)C[C@H]1NCCc3cc4c(c-2c31)OCO4 | 5.2 |
| CNCc1ccccc1Sc1cc(O)ccc1O | 4.17 |
| Cc1c(C(=O)N/N=C/c2ccc(-c3ccccc3[N+](=O)[O-])o2)sc(N)c1C#N | 1.69 |
| CCN(CC)c1ccc(NC(=O)c2ccc3c(c2)c(C)c(C)n3C)cc1 | > 54 |
| N=C1/C(=C/c2ccc(-c3cccc(C(=O)O)c3)o2)C(=O)N=C2SC=C(c3ccccc3)N12 | < 0.4 |
| COC(=O)Nc1ccc(S(=O)(=O)NCc2ccccn2)cc1 | > 54 |
| COc1ccc(C(=O)Nc2nc3c(s2)Cc2cc(OC)ccc2-3)cc1 | 4.11 |
| CC(C)C(C(=O)O)N1C(=O)/C(=C/C=C/c2ccco2)SC1=S (configuration not stated) | < 0.4 |
| CCN(CC)c1ccc(NC(=O)CCCOc2cccc(C)c2)cc1 | > 54 |
| CCOc1ccc(NC(=O)N(CCN2CCOCC2)Cc2ccc3c(c2)CCCN3CC)cc1 | 0.953 |
| COCCNC(=O)Nc1ccc2nc(-c3ccco3)c(-c3ccco3)nc2c1 | < 0.4 |
| Cc1ccc2c(c1)C1C=CCC1C(C(=O)O)N2 (configuration not stated) | < 0.4 |
| COc1ccc(-c2ccc3c(n2)sc2c(=O)[nH]c(=O)[nH]c23)cc1OC | < 0.4 |
| Oc1ccc(/C=N/Nc2ccnc3cc(Cl)ccc23)c(O)c1 | < 0.4 |
| Cc1ccc(N=C2NC(=O)S/C2=C\c2ccco2)cc1 | 8.57 |
| O=C(O)c1ccc2nc(-c3ccco3)c(-c3ccco3)nc2c1 | 1.63 |

| SMILES | IC50 [µM] |
| --- | --- |
| O=C(CSc1nnc(-c2ccco2)c(-c2ccco2)n1)Nc1ccccc1 | 2.92 |
| O=C1NC(=O)C(=Cc2ccc(-c3cc(Cl)ccc3[N+](=O)[O-])o2)C(=O)N1 | 3.25 |
| CN1C(=O)/C(=C/c2ccc(-c3ccccc3[N+](=O)[O-])o2)SC1=Nc1ccc(Cl)c(C(=O)O)c1 | < 0.4 |
| CCCCOC(=O)Nc1ccc(N(C)C)cc1 | 52.5 |
| CN1CCN(c2ccc([N+](=O)[O-])cc2/C=N/NC(=O)c2ccc(F)cc2)CC1 | 4.75 |
| Oc1c(Cl)cc(Cl)cc1/C=C/c1ccc2cccc(O)c2n1 | > 54 |
| O=c1/c(=C/c2ccc(O)c([N+](=O)[O-])c2)sc2nc3ccccc3n12 | 4.26 |
| O=[N+]([O-])c1cc(Cl)cc(/C=N/NC(=S)Nc2ccc(S(=O)(=O)N3CCOCC3)cc2)c1O | < 0.4 |
| O=c1c2c3nc4ccccc4nc3n(Cc3ccccc3)c2ncn1Cc1ccco1 | > 54 |
| Cn1c(=O)c2c(nc(NCc3ccco3)n2CC(O)COc2ccccc2)n(C)c1=O (configuration not stated) | > 54 |
| COc1ccc(O)c(N)c1 | < 0.4 |
| COC/C=C/C1=CC2=CC(=O)C(C)(OC(=O)c3ccco3)C(=O)C2=CO1 (configuration not stated) | 2.78 |
| CC1CCCCC12NC(=O)N(CC(=O)Nc1sc3c(c1C(N)=O)CCC3)C2=O (configuration not stated) | 3.97 |
| Cc1c2c(=O)n(-c3nc4ccccc4s3)nc-2cc(O)n1Cc1ccccc1 | 5.62 |
| Oc1ccc(/C=N/n2cc(-c3ccccc3)[nH]c2=S)cc1 | < 0.4 |
| CCCCCc1nc2c(=O)[nH]c3ccccc3c2o1 | > 54 |
| COc1ccc2nc(-c3ccco3)c(-c3ccco3)nc2c1 | 2.25 |
| CC(C)Cn1c(N)c(C(=O)COC(=O)c2cc(-c3ccco3)nc3ccccc23)c(=O)n(C)c1=O | 1.45 |
| NC(=O)C1CCN(C2=C(Cl)C(=O)c3ccccc3C2=O)CC1 | 48.2 |
